Molecules are shown by their SMILES.

The values that follow come from article doi:10.1101/2025.11.06.686927v1 (biorxiv, 2025).

Data set [1] has as its target T1, CDK8-cyclin C (HsCDK8/Cyclin C) (Homo sapiens, UniProt P49336). Kind of data set: radiometric […]-ATP kinase assay, RBER-IRStide substrate. It counts as biochemical.
For data set [2], the target named is T2, CLK1 (MmCLK1) (Mus musculus, UniProt P22518). Kind of data set: radiometric […]-ATP kinase assay, peptide GRSRSRSRSRSR
It counts as biochemical. To be noted: read-out: % residual activity at 10 μM.

The target in data set [3] is T3, DYRK1A (RnDYRK1A-kd) (Rattus norvegicus, UniProt Q63470). The data set is described as follows: radiometric […]-ATP kinase assay, peptide KKISGRLSPIMTEQ
It counts as biochemical. Particulars: read-out: % residual activity at 10 μM.

The target of data set [4] is T1, CDK8-cyclin C (HsCDK8/Cyclin C). Kind of data set: biochemical. To be noted: read-out: % of control remaining.
Another data set deals with CDK5/P25 (Homo sapiens, UniProt Q00535). The data set is described as follows: biochemical. To be noted: read-out: % of control remaining.
For the next data set, the target named is CDK2/cyclin A (Homo sapiens, UniProt P24941). Kind of data set: biochemical. To be noted: read-out: % of control remaining.
Another data set has as its target PIM1 (Homo sapiens, UniProt P11309). Kind of data set: biochemical. To be noted: read-out: % of control remaining.
A further data set is described as follows: in vitro. Set-up: species or system HCT116, SH-SY5Y, U2OS. To be noted: human, rpe-1 cells.
Another data set deals with HCT116. The data set is described as follows: cells. The arrangement: species or system RPE-1, SH-SY5Y, U2OS. To be noted: Homo sapiens, HCT-116, 48 h, read-out: HCT116 EC50.
The test system of another data set is SH-SY5Y. Kind of data set: cells. Particulars: Homo sapiens, 48 h, read-out: SHSY-5Y EC50. The arrangement: species or system RPE-1, HCT116, U2OS.
The next data set has as its system U2OS. The data set is described as follows: cells. The arrangement: species or system RPE-1, HCT116, SH-SY5Y. Particulars: Homo sapiens, 48 h, read-out: U2OS EC50.
Data set [5] concerns the target T2, CLK1 (MmCLK1). Kind of data set: biochemical. Particulars: read-out: % of control remaining.
Data set [6] deals with T3, DYRK1A (RnDYRK1A-kd). Kind of data set: biochemical. To be noted: read-out: % of control remaining.
For the next data set, the target named is T4, HASPIN (Homo sapiens, UniProt Q8TF76).
T4 sequence (Q8TF76 1-798): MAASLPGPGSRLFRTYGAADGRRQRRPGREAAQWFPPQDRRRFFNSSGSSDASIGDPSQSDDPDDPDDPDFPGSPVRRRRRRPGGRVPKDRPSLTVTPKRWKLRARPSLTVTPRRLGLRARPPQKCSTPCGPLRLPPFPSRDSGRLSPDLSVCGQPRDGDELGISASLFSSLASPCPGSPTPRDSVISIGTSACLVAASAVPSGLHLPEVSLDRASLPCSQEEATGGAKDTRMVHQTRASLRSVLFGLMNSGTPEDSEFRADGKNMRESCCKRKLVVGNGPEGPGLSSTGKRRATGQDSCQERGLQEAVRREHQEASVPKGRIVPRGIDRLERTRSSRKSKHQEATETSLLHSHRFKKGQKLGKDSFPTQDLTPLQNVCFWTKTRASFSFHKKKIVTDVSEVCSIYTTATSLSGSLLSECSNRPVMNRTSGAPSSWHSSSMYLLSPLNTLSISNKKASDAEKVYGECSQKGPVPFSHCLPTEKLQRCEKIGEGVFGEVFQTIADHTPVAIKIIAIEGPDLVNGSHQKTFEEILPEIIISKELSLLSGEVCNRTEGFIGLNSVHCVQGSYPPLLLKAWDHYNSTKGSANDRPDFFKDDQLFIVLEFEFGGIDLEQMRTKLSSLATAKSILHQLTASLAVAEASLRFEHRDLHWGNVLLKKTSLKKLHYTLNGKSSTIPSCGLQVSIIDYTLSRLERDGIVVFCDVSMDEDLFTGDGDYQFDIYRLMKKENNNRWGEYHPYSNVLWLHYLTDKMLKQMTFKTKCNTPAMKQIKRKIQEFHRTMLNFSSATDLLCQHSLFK
Kind of data set: biochemical. To be noted: read-out: % of control remaining.

Sequence of CDK5/P25 (Q00535 whole entry): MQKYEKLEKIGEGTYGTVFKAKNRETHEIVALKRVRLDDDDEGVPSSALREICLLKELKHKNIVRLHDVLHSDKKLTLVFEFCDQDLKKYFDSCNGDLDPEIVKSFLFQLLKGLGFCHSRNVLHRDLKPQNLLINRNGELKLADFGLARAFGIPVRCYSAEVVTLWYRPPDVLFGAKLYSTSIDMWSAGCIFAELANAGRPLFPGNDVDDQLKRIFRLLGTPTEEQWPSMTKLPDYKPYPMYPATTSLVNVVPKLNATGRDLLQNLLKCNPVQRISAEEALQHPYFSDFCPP
Sequence of CDK5/P25 (Q15078 whole entry partner): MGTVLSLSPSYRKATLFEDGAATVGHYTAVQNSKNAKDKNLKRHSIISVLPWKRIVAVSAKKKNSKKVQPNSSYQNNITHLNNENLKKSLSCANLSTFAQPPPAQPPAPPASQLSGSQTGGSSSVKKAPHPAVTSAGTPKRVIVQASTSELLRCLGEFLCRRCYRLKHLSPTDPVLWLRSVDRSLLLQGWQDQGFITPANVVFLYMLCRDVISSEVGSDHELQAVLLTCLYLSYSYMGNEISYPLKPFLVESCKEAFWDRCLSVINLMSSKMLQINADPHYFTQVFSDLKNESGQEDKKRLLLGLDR
T2 sequence (P22518 whole entry): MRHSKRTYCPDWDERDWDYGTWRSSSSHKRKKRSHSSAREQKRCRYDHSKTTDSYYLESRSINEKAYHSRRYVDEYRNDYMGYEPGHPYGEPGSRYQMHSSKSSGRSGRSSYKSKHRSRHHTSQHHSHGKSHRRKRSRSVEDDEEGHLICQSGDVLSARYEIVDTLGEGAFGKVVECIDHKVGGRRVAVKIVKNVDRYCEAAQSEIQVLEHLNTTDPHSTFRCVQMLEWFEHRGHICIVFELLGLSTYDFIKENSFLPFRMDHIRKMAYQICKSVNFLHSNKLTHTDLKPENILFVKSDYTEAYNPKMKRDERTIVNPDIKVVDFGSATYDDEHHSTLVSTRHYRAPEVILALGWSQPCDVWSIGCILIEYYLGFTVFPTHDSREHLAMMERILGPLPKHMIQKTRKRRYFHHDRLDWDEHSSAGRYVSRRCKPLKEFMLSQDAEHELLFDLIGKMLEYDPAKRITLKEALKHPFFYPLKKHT
T1 sequence (P49336 whole entry): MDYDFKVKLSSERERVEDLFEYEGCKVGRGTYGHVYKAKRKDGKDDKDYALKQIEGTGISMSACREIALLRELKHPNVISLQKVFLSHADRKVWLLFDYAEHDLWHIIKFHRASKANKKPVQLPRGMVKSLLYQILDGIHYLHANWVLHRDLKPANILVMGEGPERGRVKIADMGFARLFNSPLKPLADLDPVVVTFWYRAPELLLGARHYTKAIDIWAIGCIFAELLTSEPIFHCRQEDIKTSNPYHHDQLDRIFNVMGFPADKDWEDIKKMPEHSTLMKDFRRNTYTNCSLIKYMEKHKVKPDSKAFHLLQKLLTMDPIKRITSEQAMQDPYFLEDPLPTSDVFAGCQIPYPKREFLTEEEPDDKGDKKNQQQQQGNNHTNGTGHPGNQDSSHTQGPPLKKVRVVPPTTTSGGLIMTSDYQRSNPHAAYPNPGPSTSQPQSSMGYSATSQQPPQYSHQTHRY
T1 sequence (P24863 whole entry partner): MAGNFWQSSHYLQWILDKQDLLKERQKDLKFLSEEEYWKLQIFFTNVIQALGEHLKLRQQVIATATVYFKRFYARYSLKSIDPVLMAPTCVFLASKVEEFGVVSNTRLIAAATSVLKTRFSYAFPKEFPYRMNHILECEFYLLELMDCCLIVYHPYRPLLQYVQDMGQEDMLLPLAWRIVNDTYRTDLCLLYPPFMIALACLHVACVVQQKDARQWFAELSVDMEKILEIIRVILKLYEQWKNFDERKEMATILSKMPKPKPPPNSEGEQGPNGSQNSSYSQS
Sequence of PIM1 (P11309 whole entry): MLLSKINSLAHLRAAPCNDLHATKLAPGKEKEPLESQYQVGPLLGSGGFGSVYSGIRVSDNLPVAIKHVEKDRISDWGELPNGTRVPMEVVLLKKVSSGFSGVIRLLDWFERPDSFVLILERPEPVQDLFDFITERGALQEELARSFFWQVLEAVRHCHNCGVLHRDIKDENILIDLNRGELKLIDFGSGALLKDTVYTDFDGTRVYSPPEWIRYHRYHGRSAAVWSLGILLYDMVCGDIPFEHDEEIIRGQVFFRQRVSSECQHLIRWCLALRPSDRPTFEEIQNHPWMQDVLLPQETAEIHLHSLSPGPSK

For `N#Cc1ccc2ncnc(NCCc3ccccc3)c2c1` [Senexin A], the midpoint of inhibition in [1], the IC50, lay at 0.03 µM. For the same molecule, the remaining activity at 10 µM at CLK1 (MmCLK1) [2] is 34%; on DYRK1A (RnDYRK1A-kd) [3] it was -7%; in data set [4], 15%; on CDK5/P25, 57%; on CDK2/cyclin A, 62%; on PIM1, 78%. The CC50 at 48 h in the data set “in vitro” was found to be 41 µM. Moreover, the EC50 is more than 50 µM in the data set with HCT116, more than 50 µM in the data set with SH-SY5Y and 48 µM in the data set on U2OS.
For the molecule `O=C(CSc1ccc(-c2cccnc2)nn1)Nc1cccc(C(F)(F)F)c1` [compound 9, #9], in data set [1], the IC50 stood at 0.04 µM. In addition, the remaining activity at 10 µM in data set [4] was determined as 10%; on CDK5/P25 it was 107%; at CDK2/cyclin A, 78%; at CLK1 (MmCLK1) [5] it was 111%; on DYRK1A (RnDYRK1A-kd) [6], 80%; on HASPIN, 94%. In addition, the remaining activity at 10 µM on PIM1 is 71%. In the data set “in vitro”, this molecule came in with a CC50 at 48 h of more than 50 µM. The EC50 in the data set with HCT116, in the data set with SH-SY5Y and with U2OS was more than 50 µM throughout.
`O=C(Nc1ccc(Cc2ccncc2)cc1)Nc1cccc2ccccc12` [compound 22, #22] returned an IC50 in data set [1] of 0.16 µM. Besides, the remaining activity at 10 µM in data set [4] is 10%; at CDK5/P25, 115%; on CDK2/cyclin A, 76%; on CLK1 (MmCLK1) [5], 151%; on DYRK1A (RnDYRK1A-kd) [6] it was 83%; at HASPIN, 96%. In addition, on PIM1, the remaining activity at 10 µM was determined as 85%. Moreover, in the data set “in vitro”, the 50% cytotoxic concentration (CC50) at 48 h is 10 µM. Also, the EC50 in the data set on HCT116 came to 29 µM; with SH-SY5Y, 41 µM; with U2OS, 14 µM.
The molecule `Cc1cccc(OCC(=O)Nc2ccc3oc(-c4cccnc4)nc3c2)c1C` [compound 45, #45] had a half-inhibitory concentration (IC50) in data set [1] of 0.03 µM. For the same molecule, the remaining activity at 10 µM was 6% in data set [4]; 115% on CDK5/P25; 82% at CDK2/cyclin A; 143% on CLK1 (MmCLK1) [5]; 73% on DYRK1A (RnDYRK1A-kd) [6]; 144% at HASPIN. Also, on PIM1, the remaining activity at 10 µM came out at 127%. The molecule further showed a cytotoxic concentration (CC50) at 48 h in the data set “in vitro” of 43 µM. Further, the results for the EC50 in the data set with HCT116, with SH-SY5Y and in the data set on U2OS were 19 µM, 8 µM and 9 µM, respectively.
In data set [1], `O=C(NC[C@@H]1Cc2cc(-c3cncnc3)ccc2O1)c1scc2c1CCCC2` [compound 47, #47] displayed an IC50 of 0.2 µM. Moreover, the remaining activity at 10 µM was determined as 5% in data set [4]; 107% at CDK5/P25; 81% on CDK2/cyclin A; 109% on CLK1 (MmCLK1) [5]; 75% at DYRK1A (RnDYRK1A-kd) [6]; 118% on HASPIN. On PIM1, the remaining activity at 10 µM worked out at 89%. The molecule further displayed a CC50 at 48 h in “in vitro” of more than 50 µM. Moreover, the concentration for a half-maximal effect (EC50) in the data set with HCT116, with SH-SY5Y and in the data set with U2OS was more than 50 µM in each case.
Regarding `O=C(NC[C@H]1CC(=O)N(c2ccc3c(c2)OCO3)C1)Nc1cccc(C(F)(F)F)c1` [compound 75, #75], 0.05 µM corresponded to half-maximal inhibition in [1] (IC50). For the same molecule, the remaining activity at 10 µM turned out to be 8% in [4]; 101% at CDK5/P25; 106% on CDK2/cyclin A; 99% on CLK1 (MmCLK1) [5]; 89% at DYRK1A (RnDYRK1A-kd) [6]; 123% on HASPIN. Also, at PIM1, the remaining activity at 10 µM stood at 95%. For the same molecule, the CC50 at 48 h in the data set “in vitro” is more than 50 µM. The EC50 in the data set on HCT116, in the data set on SH-SY5Y and in the data set with U2OS was more than 50 µM throughout.
With `O=C(Nc1ccc2oc(-c3cccnc3)nc2c1)c1ncoc1-c1ccccc1Cl` [compound 76, #76], the IC50 in data set [1] was 0.1 µM. For the same molecule, the remaining activity at 10 µM came to 37% on CLK1 (MmCLK1) [2]; 11% in [4]; 89% at CDK5/P25; 73% on CDK2/cyclin A; 80% at DYRK1A (RnDYRK1A-kd) [6]; 116% on HASPIN. The remaining activity at 10 µM at PIM1 was found to be 109%. In “in vitro”, this molecule came in with a CC50 at 48 h of more than 50 µM. Besides, the EC50 in the data set with HCT116, with SH-SY5Y and in the data set with U2OS was more than 50 µM throughout.
Consider `Cc1ccc(NC(=O)Nc2ccc(Cc3ccncc3)cc2)cc1C` [compound 82, #82], for which inhibition in data set [1] was half-maximal at 0.005 µM (IC50). Further, the remaining activity at 10 µM in [4] is 19%; on CDK5/P25 it was 109%; at CDK2/cyclin A it was 120%; at CLK1 (MmCLK1) [5] it was 81%; on DYRK1A (RnDYRK1A-kd) [6], 134%; at HASPIN it was 111%. For the same molecule, the remaining activity at 10 µM at PIM1 is 89%. For the same molecule, the CC50 at 48 h in the data set “in vitro” is more than 50 µM. Moreover, the EC50 was found to be 31 µM in the data set on HCT116, 24 µM with SH-SY5Y and 10 µM in the data set on U2OS.

As usually defined, the IC50 is the concentration at which inhibition is half-maximal. High values mean weaker potency in that assay, low ones greater potency in that assay. In general, CC50 refers to the concentration that lowers cell viability or growth by half. A word on the EC50: it is the concentration needed to bring the measured effect to its halfway point.
